Measurements as given in patent publication US4010184A, “Thienodiazepines” (Yoshitomi Pharmaceutical Industries, Ltd., priority 1973, dated 1977).

Tests used:
[1] = tested on: mice (tail electrical stimulation, absence of squeak); assay: Analgesic Activity (Electrical Stimulation Method); assay type: in vivo, mouse; conditions: male mice, intraperitoneal, tail stimulated 5 s, 25 volts, 40 msec., 1 cps, determined graphically; for ED50: Mus musculus, ip
Protocol: 1. Analgesic Activity (Electrical Stimulation Method)
The test was performed essentially in accordance with the methods described in "Journal of the Pharmaceutical Society of Japan," vol 73, p. 212 ff. (1953) and "Folia Pharmacologica Japonica," vol. 65, p. 378 ff. (1969).
Test compound was administered intraperitoneally to groups consisting 10 male mice. The tail of the mouse was electrically stimulated for 5 seconds with interrupted direct current (25 volts, 40 msec., 1 cps.). When no squeak was observed during the electrical stimulation, analgesic effect was evaluated to be positive.
The ED50 (50% effective dose) was determined graphically.

[2] = tested on: mice (pentylenetetrazole lethality); assay: Anticonvulsant Activity (pentylenetetrazole-induced death); assay type: in vivo, mouse; conditions: intraperitoneal; for Anticonvulsant Activity %-Inhibition: 15 min before pentylenetetrazole 150 mg/kg s.c., deaths within 3 hours, at dose equal to analgesic ED50: 40 (1, 2), 30 (3), 28 (4), 200 (5), 170 (6), 200 (7) mg/kg; for A/B (A: ED50 value for analgesic activity; B: ED50 value for anticonvulsant activity): ratio of ED50 values
Protocol: 2. Anticonvulsant Activity
Pentylenetetrazole (150 mg/kg) was administered subcutaneously to groups consisting 6 mice 15 minutes after the intraperitoneal administration of the test compound. The number of dead mice were counted within 3 hours after the administration of pentylenetetrazole. On one hand, the %-inhibition at the dose equal to the ED50 dose for analgesic activity was determined, and on the other, the ED50, the dose required to suppress the lethal rate to 50%, was determined graphically.

Compound	Analgesic Activity ED50 [1] [mg/kg]	Anticonvulsant Activity %-Inhibition [2] [%]	A/B (A: ED50 value for analgesic activity; B: ED50 value for anticonvulsant activity) [2]	ED50 [1] [mg/kg]
5-(3,4-dichlorophenyl)-7-ethyl-1-dimethylcarbamoyl-2,3-dihydro-1H-thieno[2,3-e][1,4]diazepine hydrochloride [Example 6]	170			
5-o-chlorophenyl-7-ethyl-1-(4-methyl-1-piperazinylcarbonyl)-2,3-dihydro-1H-thieno[2,3-e][1,4]diazepine dihydrochloride 1/2 -hydrate [Example 4]	28			
5-o-chlorophenyl-7-ethyl-1-piperidinocarbonyl-2,3-dihydro-1H-thieno[2,3-e][1,4]diazepine hydrochloride [Example 3]		0	< 0.4	
7-ethyl-1-dimethylcarbamoyl-5-phenyl-2,3-dihydro-1H-thieno[2,3-e][1,4]diazepine hydrochloric [Example 5]	> 200			
Cc1c(N(C)C)c(=O)n(-c2ccccc2)n1C [Aminopyrine, reference compound]				100
CCc1cc2c(s1)N(C(=O)N(C)C)CCN=C2c1ccccc1Cl.Cl [Test Compound 1, 5-o-chlorophenyl-7-ethyl-1-dimethylcarbamoyl-2,3-dihydro-1H-thieno[2,3-e][1,4]diazepine hydrochloride]		0	< 0.4	40
CCc1cc2c(s1)N(C(=O)N(C)C)CCN=C2c1ccc(Cl)cc1.Cl [Test Compound 2, 5-p-chlorophenyl-7-ethyl-1-dimethylcarbamoyl-2,3-dihydro-1H-thieno[2,3-e][1,4]diazepine hydrochloride]		0	< 0.4	40
CCc1cc2c(s1)N(C(=O)NC)CCN=C2c1ccccc1Cl [Test Compound 7, 5-o-chlorophenyl-7-ethyl-1-methylcarbamoyl-2,3-dihydro-1H-thieno[2,3-e][1,4]diazepine, reference compound]		100	2 - 4	200
